Laboratory results reported in US20130224110A1, “USE OF ADENOSINE RECEPTOR SIGNALING TO MODULATE PERMEABILITY OF BLOOD-BRAIN BARRIER” (CORNELL UNIVERSITY, priority 2010, published 2013).

Legend:
[1] = tested on: Bend.3 cells; experiment: Transendothelial cell electrical resistance (TEER) assay; type: cell-based; details: mouse BEC monolayers, 1 μM, vs vehicle or media alone
Procedure: Bend.3 cells were grown in ATCC-formulated DMEM supplemented with 10% FBS on 24-well transwell inserts, 8 μm pore size (BD Falcon, Bedford, Mass.) until a monolayer was established. TEER was assessed using a Voltohmeter (EVOMX, World Precision Instruments, Sarasota, Fla.). Background resistance from un-seeded transwells was subtracted from recorded values to determine absolute TEER values. Change in absolute TEER from T0 for each individual transwell was expressed as percentage change and then averaged for each treatment group.

[2] = tested on: Bend.3 cells; experiment: Tight junction molecule staining (ZO-1, Claudin-5, Occludin); type: cell-based, mouse; details: 1 μM, 1 h
Procedure: Bend.3 cells grown on collagen coated coverslips were incubated with DMSO vehicle, NECA (1 μM), or Lexiscan (1 μM) for 1 h. Cells were washed with PBS, fixed with 4% paraformaldehyde, and permeabilized with 0.5% Triton-X in PBS. Cells were blocked with PBS/BSA/goat serum and then stained with antibodies (Invitrogen) against either ZO-1 (1A12), Claudin-5 (34-1600), or Occludin (3F10). Following a wash step, cells were incubated with either goat anti-rabbit IgTexas Red-X or goat anti-mouse IgCy5 (Invitrogen). Cover slips were washed and mounted on slides with ProlongGold containing DAPI. Images were obtained on a Zeiss Axio Imager M1 fluorescent microscope.

[3] = tested on: Bend.3 cells; experiment: Albumin uptake assay; type: cell-based, mouse; details: BECs, 1 μM, 30 minutes, vs media and vehicle
Procedure: Bend.3 cells grown on collagen coated coverslips were incubated with albumin-alexafluor 594 (50 mg/ml) (Invitrogen) and either media alone, DMSO vehicle, NECA (1 μM), or Lexiscan (1 μM) for 30 minutes. Albumin uptake was visualized (albumin=red) utilizing the Zeiss Axio Imager M1 fluorescent microscope. Total albumin fluorescence was recorded using Zeiss Axio Vision software, and measured utilizing Image-J software.

[4] = cited from earlier work
[5] = tested on: EAE; experiment: EAE induction and scoring (MOG35-55/CFA/PTX); type: in vivo, mice; details: wild type mice, 2 mg/kg (1 mg/kg i.p. and 1 mg/kg s.c.) 1 day prior to EAE induction and daily for 30 days, vs DMSO alone
Source text: Cd73^−/− mice have been previously described (Thompson et al., “Crucial Role for Ecto-5′-Nucleotidase (CD73) in Vascular Leakage During Hypoxia,” J. Exp. Med. 200:1395-1405 (2004), which is hereby incorporated by reference in its entirety) and have been backcrossed to C57BL/6 for 14 generations. Cd73^−/− mice have no overt susceptibility to infection and appear normal based on the size and cellular composition of their lymphoid organs and their T and B cell responses in in vivo and in vitro assays (Thompson et al., “Crucial Role for Ecto-5′-Nucleotidase (CD73) in Vascular Leakage During Hypoxia,” J. Exp. Med. 200:1395-1405 (2004), which is hereby incorporated by reference in its entirety). C57BL/6 and tcrα^−/− mice on the C57BL/6 background were purchased from The Jackson Laboratories. Mice were bred and housed under specific pathogen-free conditions at Cornell University or the University of Turku. For adenosine receptor blockade experiments, mice were given drinking water supplemented with 0.6 g/L of caffeine (Sigma) or 2 mg/kg SCH58261 (1 mg/kg s.c. and 1 mg/kg i.p.) in DMSO (45% vol. in PBS) or 45% DMSO alone starting 1 day before EAE induction and continuing throughout the experiment. All procedures performed on mice were approved by the relevant animal review committee.
EAE was induced by subjecting mice to the myelin oligodendrocyte glycoprotein (“MOG”) EAE-inducing regimen as described in Swanborg, “Experimental Autoimmune Encephalomyelitis in Rodents as a Model for Human Demyelinating Disease,” Clin. Immunol. Immunopathol. 77:4-13 (1995) and Bynoe et al., “Epicutaneous Immunization with Autoantigenic Peptides Induces T Suppressor Cells that Prevent Experimental Allergic Encephalomyelitis,” Immunity 19:317-328 (2003), which are hereby incorporated by reference in their entirety. […] Mice were scored daily for EAE based on disease symptom severity; 0=no disease, 0.5-1=weak/limp tail, 2=limp tail and partial hind limb paralysis, 3=total hind limb paralysis, 4=both hind limb and fore limb paralysis, 5=death. […]
As CD73 catalyzes the breakdown of AMP to adenosine and ARs are expressed in the CNS (Tsutsui et al., “A1 Adenosine Receptor Upregulation and Activation Attenuates Neuroinflammation and Demyelination in a Model of Multiple Sclerosis,” J. Neurosci. 24:1521-1529 (2004)); Rosi et al., The Influence of Brain Inflammation Upon Neuronal Adenosine A2B Receptors,” J. Neurochem. 86:220-227 (2003), which are hereby incorporated by reference in their entirety), it was next determined if AR signaling is important during EAE progression. […] Since CD73 is highly expressed on the choroid plexus (FIG. 6C), it was next determined if ARs are also expressed on the choroid plexus. […]

Row | Structure (SMILES) | TEER [1] | ZO-1 and claudin-5 expression [2] | occludin expression [2] | rate of fluorescently-labeled albumin uptake [3] | half-life [4] [h] | EAE development [5]
1 | CCNC(=O)[C@H]1O[C@@H](n2cnc3c(N)ncnc32)[C@H](O)[C@@H]1O [NECA, 5′-N-ethylcarboxamido adenosine] | decreases in TEER | discreet alterations in ZO-1 and claudin-5 | severely diminished occludin expression | did not affect the rate of fluorescently-labeled albumin uptake | ~5 | –
2 | Nc1nc2c(cnn2CCc2ccccc2)c2nc(-c3ccco3)nn12 [SCH58261, 2-(2-Furanyl)-7-(2-phenylethyl)-7H-pyrazolo[4,3-e][1,2,4]triazolo[1,5-c]pyrimidin-5-amine] | – | – | – | – | – | dramatically protected against EAE development
